Key:
[1] = Spraying onto a clear glass surface held perpendicular to the ground (retention); type: physicochemical; settings: sprayed on clear glass held perpendicular to the ground; same BC concentration
Excerpt: A BC/DPLC suspension prepared as in Example 1 and a BC solution (at the same concentration) are sprayed on to a clear glass surface held perpendicular to the ground. The liquids run freely downward. […] This teaches that spraying of the BC/DPLC formulation achieves the desired benefit, as expected in its use on hair and skin.

[2] = Spraying of formulations onto surface of a pan of water (dilution stability of aggregates); type: physicochemical; settings: mixed vigorously, sprayed onto surface of a pan of water at room temperature (20° C.)
Method: The two formulations are each mixed vigorously to disperse their contents and then sprayed onto the surface of a pan of water at room temperature (20° C.).

[3] = Appearance of solutions after cooling to room temperature; type: physicochemical; settings: cooled from 85° C. to room temperature
Method: A solution of BC is prepared by adding 20 grams BTMC-85 (Mason chemical company, 80% active by weight) to 330 ml of water and heating to 85° C. 50 grams of DPLC (SL-5, Mason chemical company, 35% active by weight) is added. The solution is clear and a slight yellow in color. A solution of BC is prepared in water as above but without addition of DPLC. Both solutions are cooled to room temperature.

wet hair of individuals = assay: Spraying onto the wet hair of individuals; type: in vivo; settings: sprayed onto wet hair, left on while hair dried, combed and brushed while damp
Method: A suspension of BC/DPLC was prepared as described in Example 1. It was sprayed onto the wet hair of individuals and left on while the hair dried. The hair was combed and brushed while still damp.
A solution of BC, equal in the concentration BC as in Example 1, was also sprayed on the wet hair of an individual, as described above.

appearance of glass surface after liquid runs off [1]: clear
appearance of solution after cooling [3]: forms a uniform milky suspension
Structure (SMILES): CCCCCCCCCCCCCCCCCCCCCC[N+](C)(C)C [BC, Behentrimonium chloride (N,N,N-trimethyldocosan-1-aminium chloride]
behaviour on dilution in water [2]: gradually diffuses down into the water layer resulting in a nearly clear, transparent solution
feel of hair (wet hair of individuals): oily, and lacked the feel and management properties of the BC/DPLC formulation

— US9931287B2, “Simple micro-particulate suspension of behentrimonium chloride with favorable distributive and adsorptive properties” (Formula XO, Inc., priority 2013, dated 2018)
